{
  "source": "patent US20250186396A1",
  "about": "“COMPOSITIONS AND METHODS FOR THE TREATMENT OF GLIOBLASTOMA WITH A DUAL TARGETING ANTI-TUMOR COMPOSITION” (Northwestern University, priority 2023, published 2025)",
  "key": {"005 GSCs": {"system": "005 GSCs", "assay": "Survival of mice intracranially implanted with 005 GSCs", "format": "in vivo, C57BL/6 mice", "settings": "005 GSCs 2×10^5 cells/mouse; BAPN 2 g/L drinking water from day 4; SR9009 100 mg/kg i.p. 10 days from day 7; anti-PD1 10 mg/kg i.p. days 11, 14, 17; radiation 2.5 Gy 4 days from day 7", "protocol": "Mice and Intracranial Xenograft Tumor Models. Female C57BL/6 mice at 3 to 4 weeks of age were purchased from the Jackson Laboratory (#0000664). All animals were grouped by 5 mice per cage and maintained in IVC System (San Diego, CA) for a week before the experiment. All animal experiments were performed with the approval of the Institutional Animal Care and Use Committee (IACUC) at Northwestern University. The intracranial xenograft tumor models were established previously. In brief, mice were anesthetized by isoflurane through IMPAC6 Anesthesia System. Then a dental drill was used to open a small hole in the skull of mice 1.2 mm anterior and 3.0 mm lateral to the bregma. Mice were placed into the stereotactic apparatus, and 5 μL 005 GSC, CT2A, or GL261 cells in FBS-free culture medium were injected into the right caudate nucleus 3 mm below the surface of the brain using a 10 μL Hamilton syringe with an unbeveled 30-gauge needle. The incision was closed using Vetbond glue. Meloxicam (20 mg/kg, daily) was subcutaneously injected for pain relief for 3 days after surgery. […]\nStatistical analysis. […] The survival analysis for animal models was determined by conducting Log-rank (Mantel-Cox) test. […]"}, "[1]": {"assay": "LC-MS/MS quantification of BAPN in plasma and brain", "format": "in vivo, C57BL/6 mice", "settings": "BAPN 2 g/L in drinking water; concentration in plasma and brain after 1, 2, 4, 8 hours", "protocol": "Mass spectrometry. A high-performance liquid chromatography tandem mass spectrometry (LC-MS/MS) assay was developed to quantify BAPN and SR9009 in plasma and brain of C57BL/6 mice. Specifically, the blood and brain tissues were collected after 1, 2, 4, and 8 hours of the administration of BAPN (2 g/L in drinking water) or SR9009 (100 mg/kg body weight, i.p.). The plasma was generated using the standard centrifugation techniques, and the brain tissues were pulverized by cryogenic grinding with liquid nitrogen. The plasma and brain tissue samples were mixed with internal standards, deproteinized with MeOH, and processed into LC-MS/MS to test the concentration of BAPN or SR9009. The analysis was performed at the Mass Spectrometry Core in Research Resources Center of University of Illinois at Chicago."}},
  "data": [
    {"smiles": "N#CCCN", "note": "[BAPN, β-aminopropionitrile]", "values": [
      {"measurement": "survival", "setting": "005 GSCs", "result": "extended the survival"},
      {"measurement": "ability to cross the blood-brain barrier (BBB)", "setting": "[1]", "result": "showed an ability to cross the blood-brain barrier"}
    ]}
  ]
}
